Literature values as cited in patent publication US20260262632A1, “COMPOSITIONS AND METHODS FOR TANK-MIX SPRAY APPLICATION OF 1-MCP” (AGROFRESH INC., priority 2023, published 2026).

SMILES: CC1=CC1 [1-MCP, 1-Methylcyclopropene]
- concentration above which gaseous 1-MCP is flammable: > 13,300 ppm
